PubChem BioAssay (NCI)
“And” between values parts separate entries of the source, which are not always exact repeats. Equal entries are not always repeated.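 Tested at 5 concentrations; 48 h exposure; 96-well plates; endpoints linearly interpolated, else capped at highest concentration. GI50: concentration for 50% inhibition of growth. TGI denotes the concentration required for complete inhibition of growth.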

Key:
Assay in all cases: NCI anticancer screen, dose series, 48 h
[1] = test system: RXF 393 renal
[2] = test system: RPMI-8226 leukemia
[3] = test system: SR leukemia
[4] = test system: SNB-75 CNS
[5] = test system: NCI-H522 lung
[6] = test system: OVCAR-3 ovarian
[7] = test system: UACC-257 melanoma
[8] = test system: A549 NSCLC
[9] = test system: K-562 leukemia
[10] = test system: M14 melanoma

SMILES | GI50 [1] | TGI [1] | GI50 [2] | TGI [2] | GI50 [3] | TGI [3] | GI50 [4] | TGI [4] | GI50 [5] | TGI [5] | GI50 [6] | TGI [6] | GI50 [7] | TGI [7] | GI50 [8] | TGI [8] | GI50 [9] | TGI [9] | GI50 [10] | TGI [10]
COc1cc(C)c(C(=O)O[C@H]2[C@H](O[C@H]3[C@@H](O)COC(O[C@H]4C[C@H]5[C@@H]6CC=C7C[C@@H](O)CC[C@]7(C)[C@H]6CC[C@]5(C)[C@H]4[C@H](C)C(=O)CCC(C)C)[C@@H]3OC(C)=O)OC[C@@H](O)[C@@H]2O)c(C)c1 (some centres not stated) | < 0.01 µM | < 0.01 µM | < 0.01 µM | < 0.01 µM | < 0.01 µM | 21.1 µM | < 0.01 µM | 7.71 µM | < 0.01 µM | 0.334 µM | 2.77 µM | 22 µM | 0.021 µM | 0.0738 µM | < 0.01 µM | 30.5 µM | < 0.01 µM | 7.47 µM | < 0.01 µM | < 0.01 µM
O=C(/C=C/c1ccc(C(F)(F)F)cc1)c1ccc(Nc2nc(NCCO)nc(NCCO)n2)cc1 | 1.6 µM | 3.44 µM | 2.12 µM | 5.23 µM | 2.3 µM | 7.11 µM | 2.31 µM | 13.6 µM | 2.15 µM | 6.66 µM | 2.02 µM | 4.19 µM | 10.3 µM | 23.4 µM | 2.91 µM | 10.8 µM | 2.84 µM | 8.89 µM | 3.96 µM | 17.1 µM
COc1ccc(-c2nn(-c3cccc(Cl)c3)cc2C=C(C#N)C#N)cc1 | 1.85 µM | 4.99 µM | 2.3 µM | 7.1 µM | 1.54 µM | 3.66 µM | 1.81 µM | 4.51 µM | 2.21 µM | 5.76 µM | 2.2 µM | 4.9 µM | 1.82 µM | 5.27 µM |  |  | 2.01 µM | 10.4 µM | 2.39 µM | 6.92 µM
O=C(c1ccccc1Nc1ccnc(C(F)(F)F)c1)N1CCN(c2cccc(Cl)c2)CC1 | 16.3 µM | 64.8 µM | 6.3 µM | 48 µM | 13.5 µM | > 58.7 µM | 26 µM | > 92.2 µM | 15.4 µM | 63.5 µM | 19 µM | > 80.9 µM | 12.8 µM | 49.2 µM | 21.2 µM | > 100 µM | 19.2 µM | > 100 µM | 21.4 µM | > 74.3 µM
CC1(C)CCC[C@]23C(=O)O[C@](O)(C(=O)C4=C[C@@](C)(/C=C/CCCc5ccc6ccc7cccc8ccc5c6c78)CC[C@@]42O)[C@@H]13 | 0.174 µM | 0.335 µM | 0.196 µM | 0.571 µM | 0.292 µM |  | 0.149 µM | 0.284 µM | 0.2 µM | 0.475 µM | 0.174 µM | 0.336 µM | 0.224 µM | 0.586 µM | 0.202 µM | 0.678 µM | 0.3 µM | 3.19 µM | 0.196 µM | 0.409 µM
S=c1nc[nH]c2c1ncn2Cc1ccco1 |  | > 100 µM |  | > 100 µM |  | > 100 µM |  | > 100 µM |  | > 100 µM |  | > 100 µM |  | > 100 µM |  | > 100 µM |  | > 100 µM |  | > 100 µM
Cc1nc(C)c(C(=O)Nc2cccc3c2C(=O)NC3=O)cc1C(=O)Nc1cccc2c1C(=O)NC2=O |  | > 100 µM |  | > 100 µM |  | > 100 µM |  | > 100 µM |  | > 100 µM |  | > 100 µM |  | > 100 µM |  | > 100 µM |  | > 100 µM |  | > 100 µM
CN(C)c1ccc(/C=C2\C[C@H]3[C@@H]4CC=C5C[C@@H](N6CCCC6)CC[C@]5(C)[C@H]4CC[C@]3(C)[C@H]2O)cc1 | 3.47 µM | 2.65 µM and 12.3 µM | 3.1 µM |  | 3.04 µM |  | 3.4 µM | 3.01 µM and 14.9 µM |  | 2.25 µM | 2.06 µM | 2.7 µM and 4.86 µM | 2.09 µM | 1.89 µM and 4.02 µM | 3.79 µM | 4.41 µM and 15.3 µM | 2.36 µM |  | 1.8 µM | 1.45 µM and 3.63 µM
COc1ccc(N2CCN(C(=O)c3ccccc3Nc3ccnc(C(F)(F)F)c3)CC2)cc1 | 99.9 µM | > 100 µM | 9.48 µM | > 100 µM | 10.8 µM | > 100 µM | 50.5 µM | > 100 µM | 18.1 µM | > 100 µM | 28.5 µM | > 100 µM | 20.8 µM | > 100 µM | 61.5 µM | > 100 µM | 59.3 µM | > 100 µM | 87.3 µM | > 100 µM
CC(C)C[C@H](NC(=O)[C@H](CCc1ccccc1)NC(=O)CN1CCOCC1)C(=O)N[C@@H](Cc1ccccc1)C(=O)N[C@@H](CC(C)C)C(=O)[C@@]1(C)CO1 | < 0.014 µM | 0.0246 µM | < 0.01 µM |  | 0.0149 µM | > 100 µM | 0.018 µM | 0.0509 µM | < 0.01 µM | 0.0239 µM | < 0.01 µM | 0.0172 µM | 0.0547 µM | 0.287 µM | 0.0203 µM | 0.204 µM | 0.0252 µM | > 100 µM | < 0.0131 µM | 0.0446 µM
C[C@]12O[C@H](C[C@]1(O)CO)n1c3ccccc3c3c4c(c5c6ccccc6n2c5c31)CNC4=O | 0.0385 µM and 0.0189 µM | 0.622 µM and 0.649 µM | 0.134 µM and 0.215 µM | 1.6 µM and 1.75 µM | 0.0203 µM and 0.022 µM | 0.474 µM and 0.24 µM | 0.0492 µM and 0.0852 µM | 0.556 µM and 1.3 µM | 0.0374 µM and 0.135 µM | 1.5 µM and 2.06 µM | 0.37 µM and 0.391 µM | 3.31 µM and 2.76 µM | 0.25 µM and 0.366 µM | 2.57 µM and 2.46 µM | 0.176 µM and 0.191 µM | > 6.09 µM and 3.5 µM |  | > 100 µM | 0.0159 µM and 0.0297 µM | 0.492 µM and 1.97 µM
COc1ccc2cccc(C(=O)c3ccc(C)c4c3CCC4)c2c1 |  | 73.5 µM |  |  |  | 85.3 µM |  | > 100 µM |  | 64.1 µM |  | > 100 µM |  | > 100 µM |  | > 100 µM |  | > 100 µM |  | 57.6 µM
NCCCCCS(=O)(=O)O |  | > 100 µM |  |  |  | > 100 µM |  | > 100 µM |  | > 100 µM |  | > 100 µM |  | > 100 µM |  | > 100 µM |  | > 100 µM |  | > 100 µM
O=c1[nH]cc(CS(=O)(=O)Cc2c[nH]c(=O)[nH]c2=O)c(=O)[nH]1 |  | > 100 µM |  | > 100 µM |  | > 100 µM |  | > 100 µM |  | > 100 µM |  |  |  | > 100 µM |  | > 100 µM |  | > 100 µM |  | > 100 µM
S=c1nc(-c2nc(=S)[nH]c3c2CCCCCCCCCC3)c2c([nH]1)CCCCCCCCCC2 |  | > 100 µM |  |  |  | > 100 µM |  | > 100 µM |  | > 100 µM |  | > 100 µM |  | > 100 µM |  | > 100 µM |  | > 100 µM |  | > 100 µM
